Drawing on PubChem BioAssay (NCI), this text covers GI50 and TGI for 3 compounds.

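Growth conditions: 96-well plates. Treatment: test compound, 48 hours, 5 concentrations. Analysis: linear interpolation between bracketing concentrations; unreached endpoints set to highest concentration. Here, GI50 denotes the concentration required for 50% inhibition of growth. TGI is the concentration that stops growth completely.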

Among the test systems are SF-295 CNS; MALME-3M melanoma; UACC-62 melanoma; SK-MEL-5 melanoma; DU-145 prostate; OVCAR-4 ovarian; SN12C renal; TK-10 renal; SK-MEL-28 melanoma; SW-620 colon.
What all share (test): NCI tumour cell line growth inhibition, 48 h

As for `CN1CCCNc2c(c(=O)c2=O)NCCCN(C)CCCNc2c(c(=O)c2=O)NCCCN(C)CCCNc2c(c(=O)c2=O)NCCCN(C)CCCNc2c(c(=O)c2=O)NCCCN(C)CCCNc2c(c(=O)c2=O)NCCCN(C)CCCNc2c(c(=O)c2=O)NCCCN(C)CCCNc2c(c(=O)c2=O)NCCC1`, the GI50 in the assay on SF-295 CNS was 5520 nM; in the assay on MALME-3M melanoma, 1110 nM; with UACC-62 melanoma, 2390 nM; in the assay on SK-MEL-5 melanoma, 6690 nM; in the assay on DU-145 prostate, 1680 nM; in the assay with OVCAR-4 ovarian, 2980 nM. Also, the GI50 is 1340 nM in the assay with SN12C renal, 1710 nM in the assay on TK-10 renal, 3700 nM in the assay with SK-MEL-28 melanoma and 4630 nM in the assay on SW-620 colon. The TGI with SF-295 CNS turned out to be 12900 nM; in the assay on MALME-3M melanoma, 3540 nM; with UACC-62 melanoma, 16800 nM; in the assay on SK-MEL-5 melanoma, 21900 nM; in the assay on DU-145 prostate it was 5900 nM; in the assay with OVCAR-4 ovarian it was 16700 nM. Besides, the TGI in the assay on SN12C renal worked out at 14200 nM; with TK-10 renal, 8240 nM; in the assay with SK-MEL-28 melanoma, 16200 nM; with SW-620 colon, 25300 nM.

Turning to `CC(=O)c1c(C(F)(F)F)n([O-])c2ccc(Cl)cc2[n+]1=O`, the GI50 with SF-295 CNS was 2230 nM; in the assay with MALME-3M melanoma, 1840 nM; with UACC-62 melanoma, 916 nM; with SK-MEL-5 melanoma it was 822 nM; in the assay on DU-145 prostate, 158 nM; with OVCAR-4 ovarian, 19000 nM. For the same compound, the GI50 is 990 nM in the assay on SN12C renal, 838 nM in the assay with TK-10 renal, 1970 nM with SK-MEL-28 melanoma and 1170 nM in the assay on SW-620 colon. For the same compound, the TGI is 5920 nM in the assay on SF-295 CNS; 3730 nM with MALME-3M melanoma; 3450 nM with UACC-62 melanoma; 2650 nM in the assay with SK-MEL-5 melanoma; 576 nM in the assay with DU-145 prostate; 50800 nM with OVCAR-4 ovarian. Besides, the TGI stood at 2520 nM in the assay with SN12C renal, 2660 nM with TK-10 renal and 6310 nM in the assay with SK-MEL-28 melanoma.

Take `CCN(CC)CCCNc1cccc2c(SCc3ccccc3)ccnc12`: the GI50 was 1800 nM with SF-295 CNS; 2130 nM in the assay with MALME-3M melanoma; 1740 nM with UACC-62 melanoma; 1680 nM in the assay with SK-MEL-5 melanoma; 1860 nM in the assay with DU-145 prostate; 2620 nM with OVCAR-4 ovarian. The GI50 with SN12C renal was 1810 nM; with TK-10 renal, 1560 nM; in the assay on SK-MEL-28 melanoma, 1990 nM; with SW-620 colon, 1700 nM. For the same compound, the TGI in the assay on SF-295 CNS stood at 3480 nM; with MALME-3M melanoma it was 4000 nM; in the assay with UACC-62 melanoma it was 3370 nM; in the assay with SK-MEL-5 melanoma it was 3080 nM; in the assay on DU-145 prostate, 3490 nM; in the assay on OVCAR-4 ovarian it was 8290 nM. The TGI in the assay on SN12C renal was 12600 nM; in the assay with TK-10 renal, 2980 nM; in the assay on SK-MEL-28 melanoma, 3500 nM; in the assay with SW-620 colon, 3460 nM.
